Experimental data as given in US11744898B2, “Multi-arm polymer conjugates of TLR agonist compounds and related immunotherapeutic treatment methods” (Nektar Therapeutics, priority 2017, dated 2023).

Tested on: CT26 tumor cells
Experiment: Murine CT-26 colon tumor model, two flanks; 800 μg 4-arm-PEG20k-CM-N-R848 intra-/peritumorally day 0, RSLAIL-2 0.8 mg/kg i.v. days 0, 9, 18
Format: in vivo, Balb/c mice

Question: What does the source list for 4-arm-PEG20k-CM-N—R848 [Compound 1]?
Answer: Survival Proportions (day 0 after treatment start): 100%; Survival Proportions (day 12 after treatment start): 80%; Survival Proportions (day 16 after treatment start): 70%; Survival Proportions (day 19 after treatment start): 40%; Survival Proportions (day 21 after treatment start): 30%; Survival Proportions (day 47 after treatment start (end of experiment)): 30%; animals with a complete response (both treated and untreated side tumors eliminated) (end of experiment, day 47): 20%; animals with a partial response (one of the two tumors eradicated) (end of experiment, day 47): 10%
